The values below come from patent publication US10188633B2, “Identification of small molecules that facilitate therapeutic exon skipping” (The Regents of the University of California, priority 2011, dated 2019).

In experiment [1] the test system is human DMD exon 50 GFP based reporter. Description: Secondary screening, 12 or 16 point titrations on the DMD exon 50 reporter cell line with or without AON6. It is filed as cell-based, mouse. How it is done: 12 or 16 point titrations of compounds were added to the Ex50-GFP and C2C12 myoblasts either with or without AON6.
A stable clone was generated from C2C12 cells transfected with a human exon 50 DMD GFP reporter (ex50GFP) that has been previously described. Ex50GFP reporter myoblasts were seeded into uncoated 384 well plates and were incubated for 4 hours either with or without 300 nM of 2′-O-methyl phosphorothioate AON6 [5′[…] 3′ (SEQ ID NO:1)] targeting the human exon 50 splice donor site. Cells were transfected with AON6 using the FUGENE (Roche) transfection reagent per manufacturer's instructions. Following AON6 incubation, each component of the BioMol library (n=503) was screened at 10 uM concentration with a final concentration of the DMSO carrier being 1%. Forty-eight hours later fluorescence was measured using the MicroXpress high content imager and analyzed using MetaXpress. Immediately preceding imaging, DNA was stained with Hoescht for 30 min. The BioMol screen without AO (−AO) was performed in 6 replicates, and the with AO (+AO) screen was performed in 3 replicates. For the screen analysis raw fluorescence values were normalized to carrier controls present on each plate by subtracting the values. Negative fluorescence values were set to 0. The data from each compound were averaged from all replicates. For secondary screening by 12 or 16 point dose response, Ex50GFP myoblasts or C2C12 cells without the reporter were seeded on uncoated 384 well plates. A sub-optimal dose of AON6 targeting DMD exon 50 was added for 4 hours. Following the 4 hour incubation, a compound dilution was added (beginning at 100 uM with 1:1 dilutions) for either 12 or 16 points. After a 48 hour incubation with compounds, DNA was stained with Hoescht, and fluorescence determined using the high content imager and analyzed with MetaXpress.

Experiment [2] has as its system mdx mice. Description: Systemic (intravenous) PMOE23 with intraperitoneal dantrolene in mdx mice, exon 23 skipping and dystrophin in multiple muscles. It is filed as in vivo, mouse.
Procedure: A systemic dose of 100 mg/kg or sub-optimal 10 mg/kg of morpholino M23D (+07-18) was administered by tail vein injection on Day 1. From Day 2-7 Dantrolene was administered intraperitoneally at a dose of 10 mg/kg/day in two divided doses. On Day 8 multiple muscles were harvested for analysis. (A) DMD exon 23 skipping was assessed as in FIG. 3. Skip/full-length mRNA ratio data were combined for all mice and for all initial muscle groups tested (quadricep, gastrocnemius, tibialis anterior and diaphragm). (B) Dystrophin protein was assessed by Western blot (Mandys8) quantitative densitometry for all muscle groups and individual mice (quadricep, gastrocnemius, tibialis anterior and diaphragm). (C) Quantitative immunohistochemistry is plotted as arbitrary units normalized to surface area for each section for all muscle groups and mice using one whole muscle cross section per animal per muscle. […] (E) Immunostaining of serial sections of treated mdx quadricep detects sarcolemmal localization of dystrophin (MANDYS8), alpha-sarcoglycan (NCL-a-sarc) and beta-dystroglycan (NCL-b-DG). […] Error bars in A-C represent the standard deviation among mice and muscles in each group (n=3 animals or n=12 total observations in saline+dantrolene and 100 mg/kg AO+DMSO; n=4 animals or n=16 observations in 10 mg/kg AO with Dantrolene or DMSO).
This enabled us to assess whether dantrolene in combination with systemic morpholino PMOE23 could enhance Dmd exon 23 skipping and induce dystrophin protein expression in multiple skeletal muscles. A single intravenous dose of 100 mg/kg PMOE23 was used as a positive control. A single intravenous dose of 10 mg/kg AO was used as a sub-optimal dose alone or in combination with twice daily dosing of 10 mg/kg/day of dantrolene intraperitoneally for the subsequent 6 days [7, 27] (n=3 in control groups and n=4 in experimental groups; Table 5).
Multiple skeletal muscles were harvested for analysis on day 7 including the quadriceps, gastrocnemius, tibialis anterior, diaphragm, triceps and heart. Muscles were assessed for: 1) increased amounts of skipped Dmd exon 23 mRNA species 2) Dystrophin protein rescue by Western blot 3) Dystrophin protein expression by quantitative immunostain, 4) appropriate subcellular localization, and 5) restoration of other components of the dystroglycan complex to the sarcolemmal membrane. To determine if dantrolene enhanced Dmd exon 23 skipping, the quantitative taqman assay was performed on RNA from each skeletal muscle.
RNA was isolated from snap frozen skeletal muscle using the QIAGEN RNAeasy Fibrous Tissue Kit.
Experiment [3] concerns mdx mice. Kind of experiment: Intramuscular PMOE23 with systemic dantrolene in mdx mice, dystrophin in tibialis anterior. It is filed as in vivo, mouse.
Procedure: One dose of either 10 ug or 2 ug of morpholino M23D in 25 ul PBS was injected into the tibialis anterior (TA) of 6 week old mdx mice on day 1 (n=3 per group). Dantrolene was administered by intraperitoneal injection at either 10 or 20 mg/kg/day for 9 days in a volume of 200 ul every 12 hours. Dantrolene was solubilized in 20% DMSO in normal saline. TA muscle was harvested on Day 11 and immediately frozen in Optimal Cutting Temperature compound (O.C.T.) embedding medium. Serial sections along the TA with intervals 800 microns apart were processed to perform assessments within the TA region with maximal AO delivery. […] (A) For Western blot analysis, half of each of the 4 middle intervals were pooled. Dystrophin protein was detected using MANDYS8 (exons 31 and 32) antibody. Control C57 was loaded at 5 ug/well, and 50 ug/well was loaded for other mdx samples. (B) Western blot was quantified by densitometry and plotted as arbitrary densitometry units normalized to vinculin loading control. […] (D) Data from whole muscle cross sections from C were quantified as total fluorescence, without inclusion of edges with artifactual staining, normalized to surface area scanned. […] Images were analyzed using Ariol SL-50 (Applied Imaging Corp., San Jose, Calif.). […]
Total fluorescence was quantitated from TA sections by scanning four entire cross sections from each of the mice for each experimental group.
Experiment [4] concerns human DMD exon 50 GFP based reporter. Description: BioMol high throughput screen in Ex50-GFP reporter C2C12 myoblasts, with or without AON6. It counts as cell-based, mouse.
The test system of experiment [5] is mdx mice. Description: Taut wire test (wire hang) in mdx mice, weekly AO with daily dantrolene. It is filed as in vivo, mouse. The conditions noted are these: 10 mg/kg/week AO with dantrolene 10 mg/kg/day versus AO alone, Day 18, p=0.022. How it is done:
Weekly systemic doses of saline, 10 mg/kg of morpholino M23D (+07-18) was administered intravascularly on Day 1, 8, and 15. Dantrolene or carrier (20% DMSO in saline) was administered intraperitoneally at a dose of 10 mg/kg/day in two divided doses daily. On Day 18 functional improvement was blindly assessed by using the taut wire test. Latency to fall (in seconds) was recorded for five consecutive trials, with a one minute break occurring in between each trial. Plotted is first the average across five trials, and then the normalized average (seconds/grams) across experimental groups. Error bars represent the s.e.m.

The next experiment relates to exon skipping. Kind of experiment: Counter screens, 16 point titrations and mdx mouse myotubes (validation of lead hits). It is filed as cell-based. The text has this:
The cell line, which was adapted to allow the screening of thousands of compounds in multiple replicates, was obtained from Dr. Qi Lu. […]

The mark [6] stands for this setting: 10 mg/kg PMOE23 IV with dantrolene 10 mg/kg/day IP.

As to `O=C1CN(/N=C/c2ccc(-c3ccc([N+](=O)[O-])cc3)o2)C(=O)N1` [DANTROLENE], the “increase in fluorescence in the Ex50-GFP+AO compared to the reporter line without AO” value in experiment [1] (12 or 16 point titrations from 100 uM, positivity criterion (FIG. 5 legend: >10%)) is on record as 10%. The “dose response in Ex50-GFP reporter” value in experiment [1] (12 or 16 point titrations with AON6) is “evidence of a dose response”. In addition, in the experiment on mdx mice [2] (setting [6]), the “Dmd exon 23 mRNA skipping, aggregate analysis of all skeletal muscle groups (excluding heart)” value was “significantly increased”; the “Dmd exon 23 skipping in the gastrocnemius, TA, diaphragm and quadriceps” value was “enhanced skipping”; the “Dmd exon 23 skipping in the triceps” value is reported as “Enhancement was not apparent”. Moreover, the “Dmd exon 23 skipping in heart muscle” value in the experiment on mdx mice [2] (any experimental condition) is reported as “No appreciable skipping”. Further, in the experiment with mdx mice [2] (pooled Western blot densitometry across quadricep, gastrocnemius, TA and diaphragm), the “mean fold increase in dystrophin protein expression, PMOE23 with dantrolene relative to PMOE23 with vehicle” value amounted to 3.1 fold. The “induced levels of dystrophin (Western blot)” value in the experiment on mdx mice [3] (dantrolene 10 or 20 mg/kg/day IP with 2 ug PMOE23 IM) was “about 20 % of C57 dystrophin levels”. The “dystrophin protein rescue with and without PMOE23” value with mdx mice [3] (dantrolene IP, immunofluorescence and Western blot) is recorded as “only rescued protein expression in the presence of PMOE23”. Also, in experiment [4], the “Average Fluorescence (n = 3)” value came to 18.20, the “Fluorescence Plate 1” value was 16.32, the “Fluorescence Plate 2” value is on record as 11.76 and the “Fluorescence Plate 3” value is given as 26.51. For the same molecule, in experiment [4], the “activity in the −AO screen” value is listed as “indistinguishable from the DMSO controls” and the “exon skipping activity in the screen +AO” value is given as “enhanced exon skipping activity”. Besides, in the experiment with mdx mice [5] (listed as Dantrolene), the “taut wire test, latency to fall (muscle strength)” value is given as “significantly increased ability of mdx mice to hang on wire”. Moreover, the “taut wire test, latency to fall (muscle strength)” value in the experiment on mdx mice [5] (listed as dantrolene) is listed as “functional benefit”. Moreover, the “efficacy in counter screen and on mdx mouse myotubes” value with exon skipping was “showing efficacy in counter screen and on mdx mouse myotubes”.
